# Experimental data published in patent US8399683B2 (TetraLogic Pharmaceuticals, priority 2008, dated 2013).
# What was measured:
# SK-OV-3 cells = experiment: Growth inhibition of ovarian cancer cell line SK-OV-3 (MTT assay, cell survival); format: cell-based; conditions: Homo sapiens, drug concentration that results in 50% cell survival, 72 hrs incubation, reported as ranges
# Outline: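 After overnight seeding in McCoy's medium with 10% FBS, SK-OV-3 cells were exposed to compound at 0.003-10 μM for 72 hrs at 37° C. MTT was then added for 3 h, with DMSO solubilization and OD read at 535 nm. CC50 is the concentration giving 50% survival relative to untreated control, reported as ranges.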
# cIAP-1 BIR-3 = cIAP-1 BIR-3 (Homo sapiens, UniProt Q13490); experiment: Fluorescence polarization binding affinity to cIAP-1 BIR-3 (competition with AbuRPF-K(5-Fam)-NH2); conditions: 5 nM labeled peptide, 40 nM BIR3, 15 min at RT, pH 7.5; reported as ranges; read-out: KD (c-IAP-1 BIR3)
# Outline: (§1)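 Test peptides at varied concentrations competed with 5 nM fluorescent Smac-mimetic tracer for 40 nM BIR3 domain, 15 min at RT in 0.1M potassium phosphate pH 7.5 with […] bovine g-globulin. Polarization (mP) read at 485/520 nm; KD reported in bins (A=<0.1 μM, B=0.1–1 μM, C>1–10 μM, D=>10 μM).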
# XIAP BIR-3 = molecular target: T1, XIAP BIR-3 (Homo sapiens, UniProt P98170); experiment: Fluorescence polarization binding affinity to XIAP BIR-3 (competition with AbuRPF-K(5-Fam)-NH2); conditions: 5 nM labeled peptide, 40 nM BIR3, 15 min at RT, pH 7.5; reported as ranges
# T1 construct: 40 nM of the respective IAP BIR3
# Outline: as §1
# T1 sequence (P98170 241-356 limits assumed): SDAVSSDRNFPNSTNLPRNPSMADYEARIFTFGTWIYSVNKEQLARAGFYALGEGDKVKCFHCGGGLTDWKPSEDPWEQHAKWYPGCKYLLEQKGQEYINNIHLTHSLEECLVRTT
# Sequence of cIAP-1 BIR-3 (Q13490 266-352 limits assumed): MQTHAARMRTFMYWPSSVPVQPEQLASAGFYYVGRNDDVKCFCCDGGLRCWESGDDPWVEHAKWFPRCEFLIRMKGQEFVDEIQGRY
SMILES,Kd (cIAP-1 BIR-3),Kd (XIAP BIR-3),CC50 (SK-OV-3 cells)
"CN[C@@H](C)C(=O)N[C@H](C(=O)N1CC[C@@H]2[C@H]1[C@H](c1c[nH]c3cc(F)ccc13)CN2C1CCCC1)C(C)(C)C [Example 3, N-{1-[4-Cyclopentyl-6-(6-fluoro-1H-indol-3-yl)-hexahydro-pyrrolo[3,2-b]pyrrole-1-carbonyl]-2,2-dimethyl-propyl}-2-methylamino-propionamide]",1000 to 10000 nM,1000 to 10000 nM,1000 to 10000 nM
CN[C@@H](C)C(=O)N[C@@H](COC)C(=O)N1CC[C@@H]2[C@H]1[C@@H](c1c[nH]c3cc(F)ccc13)CN2Cc1ccccc1 [Example 102],100 to 1000 nM,1000 to 10000 nM,1000 to 10000 nM
"CN[C@@H](C)C(=O)N[C@H](C(=O)N1CC[C@@H]2[C@H]1[C@H](c1c[nH]c3cc(F)ccc13)CN2S(C)(=O)=O)[C@@H](C)OC [Example 57, N-{1-[6-(6-Fluoro-1H-indol-3-yl)-4-methanesulfonyl-hexahydro-pyrrolo[3,2-b]pyrrole-1-carbonyl]-2-methoxy-propyl}-2-methylamino-propionamide]",100 to 1000 nM,> 10000 nM,> 10000 nM
CN[C@@H](C)C(=O)N[C@H](C(=O)N1CC[C@H]2NC[C@@H](c3c[nH]c4cc(F)ccc34)[C@H]21)C1CCCCC1 [Example 87],1000 to 10000 nM,> 10000 nM,> 10000 nM
CN[C@@H](C)C(=O)N[C@H](C(=O)N1CC[C@@H]2[C@H]1[C@@H](c1c[nH]c3cc(F)ccc13)CN2C1CCCC1)[C@@H](C)O [Example 15],100 to 1000 nM,100 to 1000 nM,100 to 1000 nM
"CN[C@@H](C)C(=O)N[C@H](C(=O)N1CC[C@@H]2[C@H]1[C@H](c1c[nH]c3cc(F)ccc13)CN2C1CCCC1)[C@@H](C)O [Example 14, N-{1-[4-Cyclopentyl-6-(6-fluoro-1H-indol-3-yl)-hexahydro-pyrrolo[3,2-b]pyrrole-1-carbonyl]-2-hydroxy-propyl}-2-methylamino-propionamide]",100 to 1000 nM,> 10000 nM,> 10000 nM
"CN[C@@H](C)C(=O)N[C@H](C(=O)N1CC[C@@H]2[C@H]1[C@H](c1c[nH]c3cc(F)ccc13)CN2S(C)(=O)=O)C(C)C [Example 47, N-{1-[6-(6-Fluoro-1H-indol-3-yl)-4-methanesulfonyl-hexahydro-pyrrolo[3,2-b]pyrrole-1-carbonyl]-2-methyl-propyl}-2-methylamino-propionamide]",100 to 1000 nM,100 to 1000 nM,> 10000 nM
CC[C@H](NC(=O)[C@H](C)NC)C(=O)N1CC[C@@H]2[C@H]1[C@H](c1c[nH]c3cc(F)ccc13)CN2Cc1ccccc1 [Example 106],100 to 1000 nM,> 10000 nM,1000 to 10000 nM
"CC[C@H](NC(=O)[C@H](C)NC)C(=O)N1CC[C@@H]2[C@H]1[C@H](c1c[nH]c3cc(F)ccc13)CN2C1CCCC1 [Example 5, N-{1-[4-Cyclopentyl-6-(6-fluoro-1H-indol-3-yl)-hexahydro-pyrrolo[3,2-b]pyrrole-1-carbonyl]-propyl}-2-methylamino-propionamide]",100 to 1000 nM,> 10000 nM,1000 to 10000 nM
"CN[C@@H](C)C(=O)N[C@@H](CO)C(=O)N1CC[C@@H]2[C@H]1[C@H](c1c[nH]c3cc(F)ccc13)CN2C1CCCC1 [Example 10, N-{2-[4-Cyclopentyl-6-(6-fluoro-1H-indol-3-yl)-hexahydro-pyrrolo[3,2-b]pyrrol-1-yl]-1-hydroxymethyl-2-oxo-ethyl}-2-methylamino-propionamide]",100 to 1000 nM,> 10000 nM,1000 to 10000 nM

# Second part, led by results:
Kd (cIAP-1 BIR-3),Kd (XIAP BIR-3),SMILES,CC50 (SK-OV-3 cells)
< 100 nM,< 100 nM,"CN[C@@H](C)C(=O)N[C@H](C(=O)N1CC[C@@H]2[C@H]1[C@@H](c1c[nH]c3cc(F)ccc13)CN2C(C)=O)[C@@H](C)OC [Example 66, N-{1-[4-Acetyl-6-(6-fluoro-1H-indol-3-yl)-hexahydro-pyrrolo[3,2-b]pyrrole-1-carbonyl]-2-methoxy-propyl}-2-methylamino-propionamide]",< 100 nM
< 100 nM,< 100 nM,"CN[C@@H](C)C(=O)N[C@H](C(=O)N1CC[C@@H]2[C@H]1[C@@H](c1c[nH]c3cc(F)ccc13)CN2c1nccc(Cl)n1)C1CCCCC1 [Example 76, N-{2-[4-(4-Chloro-pyrimidin-2-yl)-6-(6-fluoro-1H-indol-3-yl)-hexahydro-pyrrolo[3,2-b]pyrrol-1-yl]-1-cyclohexyl-2-oxo-ethyl}-2-methylamino-propionamide]",< 100 nM
< 100 nM,< 100 nM,"CN[C@@H](C)C(=O)N[C@@H](CO)C(=O)N1CC[C@@H]2[C@H]1[C@@H](c1c[nH]c3ccc(F)cc13)CN2C(C)=O [Example 73, N-{2-[4-Acetyl-6-(5-fluoro-1H-indol-3-yl)-hexahydro-pyrrolo[3,2-b]pyrrol-1-yl]-1-hydroxymethyl-2-oxo-ethyl}-2-methylamino-propionamide]",1000 to 10000 nM
< 100 nM,< 100 nM,"CN[C@@H](C)C(=O)N[C@H](C(=O)N1CC[C@@H]2[C@H]1[C@@H](c1c[nH]c3cc(F)ccc13)CN2c1ncccn1)C1CCCCC1 [Example 75, N-{1-Cyclohexyl-2-[6-(6-fluoro-1H-indol-3-yl)-4-pyrimidin-2-yl-hexahydro-pyrrolo[3,2-b]pyrrol-1-yl]-2-oxo-ethyl}-2-methylamino-propionamide]",< 100 nM
< 100 nM,< 100 nM,"CN[C@@H](C)C(=O)N[C@H](C(=O)N1CC[C@@H]2[C@H]1[C@@H](c1c[nH]c3cc(F)ccc13)CN2Cc1nccn1C)C1CCCCC1 [Example 27, N-{1-Cyclohexyl-2-[6-(6-fluoro-1H-indol-3-yl)-4-(1-methyl-1H-imidazol-2-ylmethyl)-hexahydro-pyrrolo[3,2-b]pyrrol-1-yl]-2-oxo-ethyl}-2-methylamino-propionamide]",1000 to 10000 nM
< 100 nM,< 100 nM,"CN[C@@H](C)C(=O)N[C@H](C(=O)N1C[C@@H](O)[C@@H]2[C@H]1[C@@H](c1c[nH]c3cc(F)ccc13)CN2C(=O)OCc1ccccc1)C1CCCCC1 [Example 84, 4-[2-Cyclohexyl-2-(2-methylamino-propionylamino)-acetyl]-3S-(6-fluoro-1H-indol-3-yl)-6-hydroxy-hexahydro-pyrrolo[3,2-b]pyrrole-1-carboxylic acid benzyl ester]",< 100 nM
< 100 nM,< 100 nM,CN[C@@H](C)C(=O)N[C@@H](COC)C(=O)N1CC[C@@H]2[C@H]1[C@@H](c1c[nH]c3cc(F)ccc13)CN2S(C)(=O)=O [Example 54],100 to 1000 nM
< 100 nM,< 100 nM,"CN[C@@H](C)C(=O)N[C@H](C(=O)N1CC[C@@H]2[C@H]1[C@@H](c1c[nH]c3cc(F)ccc13)CN2S(C)(=O)=O)C1CCCCC1 [Example 43, N-{1-Cyclohexyl-2-[6-(6-fluoro-1H-indol-3-yl)-4-methanesulfonyl-hexahydro-pyrrolo[3,2-b]pyrrol-1-yl]-2-oxo-ethyl}-2-methylamino-propionamide]",< 100 nM
< 100 nM,< 100 nM,"CN[C@@H](C)C(=O)N[C@H](C(=O)N1CC[C@@H]2[C@H]1[C@@H](c1c[nH]c3cc(F)ccc13)CN2Cc1ccncc1)C1CCCCC1 [Example 26, N-{1-Cyclohexyl-2-[6-(6-fluoro-1H-indol-3-yl)-4-pyridin-4-ylmethyl-hexahydro-pyrrolo[3,2-b]pyrrol-1-yl]-2-oxo-ethyl}-2-methylamino-propionamide]",< 100 nM
< 100 nM,< 100 nM,"CN[C@@H](C)C(=O)N[C@H](C(=O)N1CC[C@@H]2[C@H]1[C@@H](c1c[nH]c3cc(F)ccc13)CN2C(C)=O)[C@@H](C)O [Example 65, N-{1-[4-Acetyl-6-(6-fluoro-1H-indol-3-yl)-hexahydro-pyrrolo[3,2-b]pyrrole-1-carbonyl]-2-hydroxy-propyl}-2-methylamino-propionamide]",100 to 1000 nM
< 100 nM,< 100 nM,"CC[C@H](NC(=O)[C@H](C)NC)C(=O)N1CC[C@@H]2[C@H]1[C@@H](c1c[nH]c3cc(F)ccc13)CN2S(C)(=O)=O [Example 46, N-{1-[6-(6-Fluoro-1H-indol-3-yl)-4-methanesulfonyl-hexahydro-pyrrolo[3,2-b]pyrrole-1-carbonyl]-propyl}-2-methylamino-propionamide]",< 100 nM
< 100 nM,< 100 nM,"CN[C@@H](C)C(=O)N[C@H](C(=O)N1CC[C@@H]2[C@H]1[C@@H](c1c[nH]c3cc(F)ccc13)CN2c1ncccn1)C(C)(C)C [Example 79, N-{1-[6-(6-Fluoro-1H-indol-3-yl)-4-pyrimidin-2-yl-hexahydro-pyrrolo[3,2-b]pyrrole-1-carbonyl]-2,2-dimethyl-propyl}-2-methylamino-propionamide]",< 100 nM
< 100 nM,100 to 1000 nM,CN[C@@H](C)C(=O)N[C@H](C(=O)N1CC[C@@H]2[C@H]1[C@@H](c1c[nH]c3cc(F)ccc13)CN2Cc1ccccc1)[C@@H](C)O [Example 101],100 to 1000 nM
< 100 nM,< 100 nM,C[C@H](N)C(=O)N[C@H](C(=O)N1CC[C@H]2NC[C@H](c3cn(Cc4ccccc4)c4cc(F)ccc34)[C@H]21)C1CCCCC1 [Example 92],1000 to 10000 nM
